Patent publication US4220755A, “Fortimicin B derivatives and process for production thereof” (Abbott Laboratories, priority 1976, dated 1980)
Values after ≈ are worked out from the molar mass of the structure shown. Read-outs that look alike come from different tables or passages of the source.

Columns and labels:
[1] = system: Escherichia coli 57R/W677; experiment: MIC, agar dilution method, pH 7.2; assay type: cell-based; settings: 57R/W677, pH 7.2, read-out: Minimum inhibition concentration (MIC)
Procedure: (§1) Measurement was carried out according to the agar dilution method, using a medium of pH 8.0, or the Japanese Antibiotic Medicament Standard, using a medium of pH 7.2 Units are in mcg/ml.
(§2) **1: gentamicin, producing adenylsynthetase.

[2] = system: Klebsiella pneumoniae 3020 Y-60; experiment: MIC, agar dilution method, pH 7.2; assay type: cell-based
Procedure: as §1, §2

[3] = system: Escherichia coli R12 Z-338; experiment: MIC, agar dilution method, pH 7.2; assay type: cell-based
Procedure: as §1, §2

Escherichia coli 76-2 = experiment: MIC, agar dilution method, pH 7.2; assay type: cell-based
Procedure: as §1, §2

Escherichia coli NIHTC-2 = experiment: MIC, agar dilution method, pH 7.2; assay type: cell-based
Procedure: as §1

[4] = system: Pseudomonas aeruginosa BMH# 1; experiment: MIC, agar dilution method, pH 7.2; assay type: cell-based
Procedure: as §1

[5] = system: Klebsiella pneumoniae KY4274; experiment: MIC, agar dilution method, pH 7.2; assay type: cell-based
Procedure: as §1

[6] = system: Pseudomonas aeruginosa UCLA 4184; experiment: MIC, agar dilution method, pH 7.2; assay type: cell-based
Procedure: as §1

[7] = system: Staphylococcus aureus Smith (A); experiment: MIC, agar dilution method, pH 7.2; assay type: cell-based
Procedure: as §1

[8] = system: Eschericihia coli GN2411-5; experiment: MIC, agar dilution method, pH 7.2; assay type: cell-based; settings: Escherichia coli
Procedure: as §1

[9] = system: Salmonella enteritidis G-14; experiment: MIC, agar dilution method, pH 7.2; assay type: cell-based; settings: Salmonella enterica
Procedure: as §1

Shigella sonnei ATCC9290 = experiment: MIC, agar dilution method, pH 7.2; assay type: cell-based; settings: read-out: Minimum inhibition concentration (MIC)
Procedure: as §1

Proteus vulgaris JJ = experiment: MIC, agar dilution method, pH 7.2; assay type: cell-based
Procedure: as §1

[10] = system: Staphylococcus aureus 209-P; experiment: MIC, agar dilution method, pH 7.2; assay type: cell-based
Procedure: as §1

[11] = system: Staphylococcus a ureus 226; experiment: MIC, agar dilution method, pH 7.2; assay type: cell-based, Staphylococcus aureus
Procedure: as §1

Bacillus subtilis KY4273 = experiment: MIC, agar dilution method, pH 8.0; assay type: cell-based; settings: pH 8.0; Bacillus subtilis KY4273; read-out: Minimum inhibition concentration (MIC), BS
Procedure: as §1
B.S.: Bacillus subtilis KY4273

[12] = system: Escherichia coli R20 KY8349; experiment: MIC, agar dilution method, pH 7.2; assay type: cell-based; settings: R20KY8349, pH 7.2, E. coli R20 KY8349, 5**: neomycin, producing phosphotransferase type I, read-out: Minimum inhibition concentration (MIC)
Procedure: as §1
5: neomycin, producing phosphotransferase type I.

[13] = system: Klebsiella pneumoniae KY4275 ATCC10031; experiment: MIC, agar dilution method, pH 8.0; assay type: cell-based
Procedure: as §1
K.P.: Klebsiella pneumoniae KY4275 ATCC10031.

[14] = system: Salmonella typhosa KY4278 ATCC9992; experiment: MIC, agar dilution method, pH 8.0; assay type: cell-based; settings: Salmonella enterica, pH 8, read-out: Minimum inhibition concentration (MIC), ST
Procedure: as §1
S.T.: Salmonella typhosa KY4278 ATCC9992

Eschericihia coli 3100 = experiment: MIC, agar dilution method, pH 7.2; assay type: cell-based, Escherichia coli
Procedure: as §1

[15] = system: Eschericia coli KY4271 ATCC26; experiment: MIC, agar dilution method, pH 8.0; assay type: cell-based; settings: Escherichia coli, ATCC26; pH 8.0; E. coli KY4271; read-out: Minimum inhibition concentration (MIC), EC
Procedure: as §1
E.C.: Eschericia coli KY4271 ATCC26

[16] = system: Escherichia coli R19 KY8348; experiment: MIC, agar dilution method, pH 7.2; assay type: cell-based
Procedure: as §1
(§3) 4: gentamicin, producing acetyltransferase type I.

[17] = system: Pseudomonas aeruginosa R4 KY8511; experiment: MIC, agar dilution method, pH 7.2; assay type: cell-based
Procedure: as §1, §3

Serratia marcescens 1065 = experiment: MIC, agar dilution method, pH 7.2; assay type: cell-based
Procedure: as §1
(§4) 3: kanamycin, producing acetyltransferase.

[18] = system: Escherichia coli R17 Z343; experiment: MIC, agar dilution method, pH 7.2; assay type: cell-based
Procedure: as §1, §4

[19] = system: Pseudomonas aeruginosa R9 KY8516; experiment: MIC, agar dilution method, pH 7.2; assay type: cell-based
Procedure: as §1, §4

[20] = system: Shigella sonnei KY4281 ATCC9290; experiment: MIC, agar dilution method, pH 8.0; assay type: cell-based; settings: ATCC9290; pH 8.0; Shigella sonnei KY4281; read-out: Minimum inhibition concentration (MIC), SS
Procedure: as §1

[21] = system: Proteus vulgaris KY4277 ATCC6897; experiment: MIC, agar dilution method, pH 8.0; assay type: cell-based; settings: ATCC6897; pH 8.0; Proteus vulgaris KY4277; read-out: Minimum inhibition concentration (MIC), PV
Procedure: as §1

[22] = system: Escherichia coli R18 KY8321; experiment: MIC, agar dilution method, pH 7.2; assay type: cell-based; settings: R18KY8321, E. coli R18 KY8321, 2**: gentamicin, producing adenylsynthetase and neomycin phosphotransferase type II, read-out: Minimum inhibition concentration (MIC)
Procedure: as §1
2: gentamicin, producing adenylsynthetase and neomycin phosphotransferase

In the case of `CO[C@H]1[C@@H](O)[C@H](N)[C@@H](O[C@H]2O[C@H]([C@H](C)N)CC[C@H]2N)[C@H](O)[C@@H]1N(C)C(=O)CN` [Compound 2, 4-N-glycylfortimicin B, reference compound], the MIC [1] is reported as 12.5 µg/mL (≈ 30.8 µM), the MIC ([2]; Klebsiella pneumoniae, 3020Y60, pH 7.2, read-out: Minimum inhibition concentration (MIC)) is reported as 12.5 µg/mL (≈ 30.8 µM) and the MIC ([3]; R12Z338, pH 7.2, read-out: Minimum inhibition concentration (MIC)) is reported as 12.5 µg/mL (≈ 30.8 µM). The MIC (Escherichia coli 76-2; Escherichia coli, 762, pH 7.2, read-out: Minimum inhibition concentration (MIC)) was 3.12 µg/mL (≈ 7.69 µM), the MIC (Escherichia coli NIHTC-2; Escherichia coli, NIHTC2, pH 7.2, read-out: Minimum inhibition concentration (MIC)) was 3.12 µg/mL (≈ 7.69 µM) and the MIC ([4]; Pseudomonas aeruginosa, pH 7.2, read-out: Minimum inhibition concentration (MIC)) was 12.5 µg/mL (≈ 30.8 µM). The MIC ([5]; Klebsiella pneumoniae, KY4274, pH 7.2, read-out: Minimum inhibition concentration (MIC)) was 3.12 µg/mL (≈ 7.69 µM), the MIC ([6]; Pseudomonas aeruginosa, UCLA4184, pH 7.2, read-out: Minimum inhibition concentration (MIC)) was 25 µg/mL (≈ 61.7 µM) and the MIC ([7]; Staphylococcus aureus, pH 7.2, read-out: Minimum inhibition concentration (MIC)) was 0.78 µg/mL (≈ 1.92 µM). For the same compound, the MIC ([8]; GN2411, pH 7.2, read-out: Minimum inhibition concentration (MIC)) was 6.25 µg/mL (≈ 15.4 µM), the MIC ([9]; ENTERITIDIS, pH 7.2, read-out: Minimum inhibition concentration (MIC)) was 6.25 µg/mL (≈ 15.4 µM) and the MIC (Shigella sonnei ATCC9290) was 6.25 µg/mL (≈ 15.4 µM). For the same compound, the MIC (Proteus vulgaris JJ; Proteus vulgaris, pH 7.2, read-out: Minimum inhibition concentration (MIC)) was 3.12 µg/mL (≈ 7.69 µM), the MIC ([10]; Staphylococcus aureus, 209P, pH 7.2, read-out: Minimum inhibition concentration (MIC)) was 0.78 µg/mL (≈ 1.92 µM) and the MIC ([11]; pH 7.2, read-out: Minimum inhibition concentration (MIC)) was 0.78 µg/mL (≈ 1.92 µM). The MIC (Bacillus subtilis KY4273) was 0.04 µg/mL (≈ 0.0986 µM), the MIC [12] was 3.12 µg/mL (≈ 7.69 µM) and the MIC ([13]; Klebsiella pneumoniae, ATCC10031, pH 8, read-out: Minimum inhibition concentration (MIC), KP) was 0.16 µg/mL (≈ 0.395 µM). It also gave an MIC [14] of 0.16 µg/mL (≈ 0.395 µM), an MIC (Eschericihia coli 3100; Escherichia coli, 3100, pH 7.2, read-out: Minimum inhibition concentration (MIC)) of 6.25 µg/mL (≈ 15.4 µM) and an MIC [15] of 0.16 µg/mL (≈ 0.395 µM). For the same compound, the MIC ([16]; R19KY8348, pH 7.2, read-out: Minimum inhibition concentration (MIC)) was greater than 100 µg/mL, the MIC ([17]; R4KY8511, pH 7.2, read-out: Minimum inhibition concentration (MIC)) was greater than 100 µg/mL and the MIC (Serratia marcescens 1065; Serratia marcescens, 1065, pH 7.2, read-out: Minimum inhibition concentration (MIC)) was 6.25 µg/mL (≈ 15.4 µM). For the same compound, the MIC ([18]; R17Z343, pH 7.2, read-out: Minimum inhibition concentration (MIC)) was 1.56 µg/mL (≈ 3.85 µM), the MIC ([19]; R9KY8516, pH 7.2, read-out: Minimum inhibition concentration (MIC)) was 50 µg/mL (≈ 123 µM) and the MIC [20] was 0.63 µg/mL (≈ 1.55 µM). For the same compound, the MIC [21] was 0.32 µg/mL (≈ 0.789 µM) and the MIC [22] was 3.12 µg/mL (≈ 7.69 µM).

`CO[C@H]1[C@@H](O)[C@H](N)[C@@H](O[C@H]2O[C@H]([C@H](C)N)CC[C@H]2N)[C@H](O)[C@@H]1N(C)C(=O)CNC(N)=O` [Compound 3, 4-N-hydantoylfortimicin B, reference compound] showed an MIC [1] of 25 µg/mL (≈ 55.7 µM), an MIC ([2]; 3020Y60, pH 7.2, Klebsiella pneumoniae 3020 Y-60, 1**: gentamicin, producing adenylsynthetase, read-out: Minimum inhibition concentration (MIC)) of 100 µg/mL (≈ 223 µM) and an MIC ([3]; R12Z338, pH 7.2, E. coli R12 Z-338, 1**: gentamicin, producing adenylsynthetase, read-out: Minimum inhibition concentration (MIC)) of 6.25 µg/mL (≈ 13.9 µM). For the same compound, the MIC (Escherichia coli 76-2; Escherichia coli, 762, pH 7.2, E. coli 76-2, 1**: gentamicin, producing adenylsynthetase, read-out: Minimum inhibition concentration (MIC)) was 12.5 µg/mL (≈ 27.9 µM), the MIC (Escherichia coli NIHTC-2; NIHTC2, pH 7.2, Escherichia coli NIHTC-2, read-out: Minimum inhibition concentration (MIC)) was 12.5 µg/mL (≈ 27.9 µM) and the MIC ([4]; pH 7.2, Pseudomonas aeruginosa BMH# 1, read-out: Minimum inhibition concentration (MIC)) was 100 µg/mL (≈ 223 µM). The MIC ([5]; pH 7.2, Klebsiella pneumoniae KY4274, read-out: Minimum inhibition concentration (MIC)) was 12.5 µg/mL (≈ 27.9 µM), the MIC ([6]; UCLA4184, pH 7.2, Pseudomonas aeruginosa UCLA 4184, read-out: Minimum inhibition concentration (MIC)) was 50 µg/mL (≈ 111 µM) and the MIC ([7]; pH 7.2, Staphylococcus aureus Smith (A), read-out: Minimum inhibition concentration (MIC)) was 6.25 µg/mL (≈ 13.9 µM). For the same compound, the MIC ([8]; pH 7.2, E. coli GN2411-5, read-out: Minimum inhibition concentration (MIC)) was 25 µg/mL (≈ 55.7 µM), the MIC ([9]; pH 7.2, Salmonella enteritidis G-14, read-out: Minimum inhibition concentration (MIC)) was 25 µg/mL (≈ 55.7 µM) and the MIC (Shigella sonnei ATCC9290) was 25 µg/mL (≈ 55.7 µM). For the same compound, the MIC (Proteus vulgaris JJ; pH 7.2, Proteus vulgaris JJ, read-out: Minimum inhibition concentration (MIC)) was 12.5 µg/mL (≈ 27.9 µM), the MIC ([10]; pH 7.2, Staphylococcus aureus 209-P, read-out: Minimum inhibition concentration (MIC)) was 3.12 µg/mL (≈ 6.96 µM) and the MIC ([11]; pH 7.2, Staphylococcus aureus 226, read-out: Minimum inhibition concentration (MIC)) was 6.25 µg/mL (≈ 13.9 µM). For the same compound, the MIC (Bacillus subtilis KY4273) was 0.32 µg/mL (≈ 0.713 µM), the MIC [12] was 12.5 µg/mL (≈ 27.9 µM) and the MIC ([13]; ATCC10031, pH 8.0, Klebsiella pneumoniae KY4275, read-out: Minimum inhibition concentration (MIC), KP) was 0.63 µg/mL (≈ 1.4 µM). The MIC [14] was 0.32 µg/mL (≈ 0.713 µM), the MIC (Eschericihia coli 3100; Escherichia coli, pH 7.2, E. coli 3100, read-out: Minimum inhibition concentration (MIC)) was 12.5 µg/mL (≈ 27.9 µM) and the MIC [15] was 0.08 µg/mL (≈ 0.178 µM). The MIC ([16]; R19KY8348, pH 7.2, E. coli R19 KY8348, 4**: gentamicin, producing acetyltransferase type I, read-out: Minimum inhibition concentration (MIC)) was greater than 100 µg/mL, the MIC ([17]; R4KY8511, pH 7.2, P. aeruginosa R4 KY8511, 4**: gentamicin, producing acetyltransferase type I, read-out: Minimum inhibition concentration (MIC)) was greater than 100 µg/mL and the MIC (Serratia marcescens 1065; pH 7.2, Serratia marcescens 1065, 3**: kanamycin, producing acetyltransferase, read-out: Minimum inhibition concentration (MIC)) was 50 µg/mL (≈ 111 µM). It also gave an MIC ([18]; R17Z343, pH 7.2, E. coli R17 Z343, 3**: kanamycin, producing acetyltransferase, read-out: Minimum inhibition concentration (MIC)) of 3.12 µg/mL (≈ 6.96 µM), an MIC ([19]; R9KY8516, pH 7.2, P. aeruginosa R9 KY8516, 3**: kanamycin, producing acetyltransferase, read-out: Minimum inhibition concentration (MIC)) greater than 100 µg/mL and an MIC [20] of 1.25 µg/mL (≈ 2.79 µM). It also gave an MIC [21] of 0.63 µg/mL (≈ 1.4 µM) and an MIC [22] of 6.25 µg/mL (≈ 13.9 µM).
